# Key:
# Type in all cases: in vivo
# [1] = tested on: bermudagrass (Cynodon dactylon); experiment: Test B pre-/postemergence plant response
# In short: (§1)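 Each species received compound formulated in non-phytotoxic solvent with surfactant, either at planting into a loam and sand blend or as a foliar spray once plants reached 2 to 18 cm in peat-based medium. Plants stayed in the greenhouse 13 to 15 days before visual evaluation against controls, scored 0 (no effect) to 100 (complete control).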
# [2] = tested on: cocklebur (Xanthium strumarium); experiment: Test B pre-/postemergence plant response
# In short: as §1
# [3] = tested on: corn (Zea mays); experiment: Test B pre-/postemergence plant response
# In short: as §1
# [4] = tested on: giant foxtail (Setaria faberii); experiment: Test B pre-/postemergence plant response
# In short: as §1
# [5] = tested on: green foxtail (Setaria viridis); experiment: Test B pre-/postemergence plant response
# In short: as §1
# [6] = tested on: johnsongrass (Sorghum halepense); experiment: Test B pre-/postemergence plant response
# In short: as §1
# [7] = tested on: kochia (Kochia scoparia); experiment: Test B pre-/postemergence plant response
# In short: as §1
# [8] = tested on: lambsquarters (Chenopodium album); experiment: Test B pre-/postemergence plant response
# In short: as §1
# [9] = tested on: pigweed (Amaranthus retroflexus); experiment: Test B pre-/postemergence plant response
# In short: as §1
# [10] = tested on: ragweed (common ragweed, Ambrosia elatior); experiment: Test B pre-/postemergence plant response
# In short: as §1
# [11] = tested on: soybean (Glycine max); experiment: Test B pre-/postemergence plant response
# In short: as §1
# [12] = tested on: wild oat (Avena fatua); experiment: Test B pre-/postemergence plant response
# In short: as §1
# [13] = tested on: barnyardgrass (Echinochloa crus-galli); experiment: Test B flooded paddy test; conditions: for Plant response rating, Barnyardgrass: Flood (flooded paddy test), 13 to 15 days
# In short: (§2)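 2-leaf seedlings; pots flooded 3 cm over soil at treatment; cpd dosed into floodwater, depth kept constant. Greenhouse 13–15 d. Visual rating vs untreated controls, 0 = no effect, 100 = complete control.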
# [14] = tested on: ducksalad (Heteranthera limosa); experiment: Test B flooded paddy test; conditions: for Plant response rating, Ducksalad: Flood (flooded paddy test), 13 to 15 days
# In short: as §2
# [15] = tested on: rice (Oryza sativa); experiment: Test B flooded paddy test; conditions: for Plant response rating, Rice: Flood (flooded paddy test), 13 to 15 days
# In short: as §2
# [16] = tested on: umbrella sedge (Cyperus difformis); experiment: Test B flooded paddy test; conditions: for Plant response rating, Sedge, Umbrella: Flood (flooded paddy test), 13 to 15 days
# In short: as §2
# [17] = 31 g ai/ha, postemergence, scale 0 to 100, 0 is no effect, 100 is complete control
# [18] = 62 g ai/ha, postemergence, 0 is no effect, 100 is complete control, 13 to 15 days
# [19] = Postemergence, 125 g ai/ha, visual rating after 13 to 15 days, scale 0 (no effect) to 100 (complete control)
# [20] = Postemergence, 250 g ai/ha, scale 0 to 100 (0 no effect, 100 complete control)
# [21] = 250 g ai/ha, flooded paddy test, visual rating on 0 to 100 scale (0 no effect, 100 complete control) after 13 to 15 days
# [22] = 62 g ai/ha, scale of 0 to 100 where 0 is no effect and 100 is complete control
# [23] = 125 g ai/ha, scale 0 to 100, 0 is no effect, 100 is complete control
# [24] = Flood, 31 g ai/ha, scale 0 to 100 (0 no effect, 100 complete control)
structure (smiles),measurement,setting,value
O=C1CCCC(O)=C1C(=O)c1cnc(C2CCCC2)n(-c2ccccc2)c1=O [Compound 92],"Plant response rating, Bermudagrass",[1]; [17],20
same,Bermudagrass plant response rating (0 to 100 scale),[1]; [18],80
same,"Plant response rating, Bermudagrass",[1]; [19],85
same,"Plant response rating, Bermudagrass",[1]; [20],85
same,"Plant response rating, Cocklebur",[2]; [17],25
same,Cocklebur plant response rating (0 to 100 scale),[2]; [18],80
same,"Plant response rating, Cocklebur",[2]; [19],98
same,"Plant response rating, Cocklebur",[2]; [20],98
same,"Plant response rating, Corn",[3]; [17],20
same,Corn plant response rating (0 to 100 scale),[3]; [18],35
same,"Plant response rating, Corn",[3]; [19],45
same,"Plant response rating, Corn",[3]; [20],60
same,"Plant response rating, Foxtail, Giant",[4]; [17],65
same,"Foxtail, Giant plant response rating (0 to 100 scale)",[4]; [18],75
same,"Plant response rating, Foxtail, Giant",[4]; [20],98
same,"Plant response rating, Foxtail, Green",[5]; [17],75
same,"Foxtail, Green plant response rating (0 to 100 scale)",[5]; [18],80
same,"Plant response rating, Foxtail, Green",[5]; [20],98
same,"Plant response rating, Johnsongrass",[6]; [17],20
same,Johnsongrass plant response rating (0 to 100 scale),[6]; [18],85
same,"Plant response rating, Johnsongrass",[6]; [20],100
same,"Plant response rating, Kochia",[7]; [17],75
same,Kochia plant response rating (0 to 100 scale),[7]; [18],90
same,"Plant response rating, Kochia",[7]; [20],100
same,"Plant response rating, Lambsquarters",[8]; [17],90
same,Lambsquarters plant response rating (0 to 100 scale),[8]; [18],98
same,"Plant response rating, Lambsquarters",[8]; [20],100
same,"Plant response rating, Pigweed",[9]; [17],90
same,Pigweed plant response rating (0 to 100 scale),[9]; [18],100
same,"Plant response rating, Pigweed",[9]; [20],100
same,"Plant response rating, Ragweed",[10]; [17],40
same,Ragweed plant response rating (0 to 100 scale),[10]; [18],60
same,"Plant response rating, Ragweed",[10]; [20],75
same,"Plant response rating, Soybean",[11]; [17],90
same,Soybean plant response rating (0 to 100 scale),[11]; [18],98
same,"Plant response rating, Soybean",[11]; [20],98
same,"Plant response rating, Oat, Wild",[12]; [17],0
same,"Oat, Wild plant response rating (0 to 100 scale)",[12]; [18],5
same,"Plant response rating, Oat, Wild",[12]; [20],10
same,"Plant response rating, Flood, Barnyardgrass",[13]; [21],45
same,"Plant response rating, Barnyardgrass",[13]; [22],0
same,"Plant response rating, Barnyardgrass",[13]; [23],20
same,Barnyardgrass plant response rating,[13]; [24],0
same,"Plant response rating, Flood, Ducksalad",[14]; [21],85
same,"Plant response rating, Ducksalad",[14]; [22],30
same,"Plant response rating, Ducksalad",[14]; [23],70
same,Ducksalad plant response rating,[14]; [24],20
same,"Plant response rating, Flood, Rice",[15]; [21],40
same,"Plant response rating, Rice",[15]; [22],0
same,"Plant response rating, Rice",[15]; [23],25
same,Rice plant response rating,[15]; [24],0
same,"Plant response rating, Flood, Sedge, Umbrella",[16]; [21],85
same,"Plant response rating, Sedge, Umbrella",[16]; [22],65
same,"Plant response rating, Sedge, Umbrella",[16]; [23],70
same,"Sedge, Umbrella plant response rating",[16]; [24],65
